The values below come from PMC11109052, “Metabolism characterization and toxicity of N-hydap, a marine candidate drug for lung cancer therapy by LC–MS method” (Natural Products and Bioprospecting, 2024).

One series concerns CYP2C9. Put plainly: DME activity ex vivo in MLMs and MKMs: CYP2C9 (4-OH-DIC from DIC). Particulars: liver microsomes of mice pretreated 7 days p.o. On the procedure: (§1) Mice were randomly divided into four groups, with eight animals in each group. The mice received oral pretreatment with N-hydap for 7 days at doses of 2, 5, and 10 mg/kg/day, which were considered as the low dose, medium dose, and high dose, respectively. Correspondingly, the control group received PBS. On the 8th day, the liver and kidneys were removed, and organs from eight mice per group were combined to prepare MLMs and MKMs using the detailed procedures above. Subsequently, we determined the activity of CYP and UGT enzymes by specific substrate metabolized with MLMs (0.5 mg/mL) and MKMs (0.2 mg/mL) in vitro. Specifically, the following selective substrates were used for the respective enzymes: PH (1 μM) for CYP1A2, DIC (1 μM) for CYP2C9, MP (90 μM) for CYP2C19, DM (1 μM) for CYP2D6, CZX (10 μM) for CYP2E1, Tes (1 μM) for CYP3A4, SN38 (1 μM) for UGT1A1, CACD (100 μM) for UGT1A3, Sero (20 μM) for UGT1A6, and Prop (1 μM) for UGT1A9. All substrates were dissolved in methanol or DMSO. […] In the ex vivo experiments, the activity of enzymes was measured by quantifying the production of various metabolites (nM/mg protein/min). […] The measurements were performed using multiple reaction monitoring (MRM) transitions, which are specific mass spectrometry transitions used for quantification. […]
A general note: Microsomes from liver hold many membrane-bound enzymes, among them those of drug oxidation.

Another series has as its system MKMs. Put plainly: Kinetics of N-hydap glucuronidation in MKMs. Particulars: MKM. It is filed as in vitro ADME, mouse. How it is done: In this study, the rats were executed by drawing blood from the abdominal aorta and mice were sacrificed with cervical dislocation before the liver and kidneys were excised. The liver and kidneys were removed, and washed with chilled cleansing solution (contains 8 mM KH2PO4, 5.6 mM EDTA·K2·2H2O, 1 mM DTT and 229.6 μM PMSF), homogenized in a tissue homogenate buffer with a pH of 7.4, (consisting of […], 8 mM K2HPO4, 250 mM sucrose, 1 mM EDTA·K2·2H2O and 229.6 μM PMSF). Subsequently, the homogenate was centrifuged at 10,400 rpm at 4 °C for 15 min, and the supernatant was then centrifuged at 35,000 rpm at 4 °C for 60 min. A 250 mM sucrose buffer was added to the pellet to reconstitute and the resuspension was stored at − 80 °C until use. Microsome protein concentrations were measured by Omni-Easy™ Instant BCA Protein Assay Kit.
Various microsomes including HLMs, HKMs, HIMs, RLMs, RKMs, MLMs and MKMs were involved in CYP and UGT reactions of N-hydap. […]
(§2) The substrate concentrations used for HLMs were 0.05, 0.5, 2, 2.5, 5, 10, 25, 50, and 100 μM. […] The rates of N-hydap-G by enzymes were expressed as nmol/mg/min, representing the amount of metabolites formed per minute per milligram of protein. Kinetic parameters were determined by analyzing the Eadie–Hofstee plots. […]

The subject of series [1] is CYP3A4. Kind of series: DME activity ex vivo in MLMs and MKMs: CYP3A4 (6-OH-Tes from Tes). More on the design: species or system mice; key to CYP3A4 Enzymatic activity: ↑: up-regulation; ↓: down-regulation; –: no change. On the procedure:
(§3) Mice were randomly divided into four groups, with eight animals in each group. The mice received oral pretreatment with N-hydap for 7 days at doses of 2, 5, and 10 mg/kg/day, which were considered as the low dose, medium dose, and high dose, respectively. Correspondingly, the control group received PBS. On the 8th day, the liver and kidneys were removed, and organs from eight mice per group were combined to prepare MLMs and MKMs using the detailed procedures above. Subsequently, we determined the activity of CYP and UGT enzymes by specific substrate metabolized with MLMs (0.5 mg/mL) and MKMs (0.2 mg/mL) in vitro. Specifically, the following selective substrates were used for the respective enzymes: PH (1 μM) for CYP1A2, DIC (1 μM) for CYP2C9, MP (90 μM) for CYP2C19, DM (1 μM) for CYP2D6, CZX (10 μM) for CYP2E1, Tes (1 μM) for CYP3A4, SN38 (1 μM) for UGT1A1, CACD (100 μM) for UGT1A3, Sero (20 μM) for UGT1A6, and Prop (1 μM) for UGT1A9. All substrates were dissolved in methanol or DMSO. The incubation procedure was carried out as mentioned above, and the reaction was terminated with VER (20 ng/mL) in ESI+ mode and CLP (200 ng/mL) in ESI− mode. In the ex vivo experiments, the activity of enzymes was measured by quantifying the production of various metabolites (nM/mg protein/min). The metabolites and their corresponding enzymes are as follows: APAP from PH, 4-OH-DIC from DIC, 4-OH-MP from MP, DXO from DM, 6-OH-CZX from CZX, 6-OH-Tes from Tes, SN38-G from SN38, CACD-G from CACD, Sero-G from Sero, Prop-G from Prop. The measurements were performed using multiple reaction monitoring (MRM) transitions, which are specific mass spectrometry transitions used for quantification. The optimized parameters for each metabolite, such as declustering potential and collision energy, were described in Supplementary Table 1. All experiments were conducted in triplicate, to ensure accuracy and reproducibility.

Series [2] relates to CYP3A4. Kind of series: Western blot protein level after 7 days gavage: CYP3A4. In kind it is in vivo. Particulars: mice, p.o. 7 days; liver and kidney (either tissue). On the procedure: as §1, with “vitro.” for “vitro. Specifically, the following selective substrates were used for the respective enzymes: PH (1 μM) for CYP1A2, DIC (1 μM) for CYP2C9, MP (90 μM) for CYP2C19, DM (1 μM) for CYP2D6, CZX (10 μM) for CYP2E1, Tes (1 μM) for CYP3A4, SN38 (1 μM) for UGT1A1, CACD (100 μM) for UGT1A3, Sero (20 μM) for UGT1A6, and Prop (1 μM) for UGT1A9. All substrates were dissolved in methanol or DMSO.”
After 7 days of N-hydap gavage, the liver and kidney tissues were lysed using RIPA buffer supplemented with a 1% protease inhibitor cocktail. […] Western blot signals were detected using an ECL chemiluminescence detection agent. The relative intensity of each protein band was scanned and quantified using Image J software.
(In general: Immunoblotting shows a protein as a band on a membrane.)

A further series has as its system HLMs. Put plainly: Kinetics of N-hydap glucuronidation in HLMs. It is filed as in vitro ADME, human. Particulars: HLM. How it is done:
Various microsomes including HLMs, HKMs, HIMs, RLMs, RKMs, MLMs and MKMs were involved in CYP and UGT reactions of N-hydap. A typical CYP incubation mixture included 0.5 mg/mL microsomes protein, 3.3 mM glucose-6-phosphate, 3.3 mM MgCl2, 0.4 U/mL glucose-6-phosphate dehydrogenase, and N-hydap (1, 2.5, or 10 μM) in the 50 mM potassium phosphate buffer (KPI, pH 7.4). The incubation mixture was preincubated at 37 °C for 5 min, and the reaction was started by adding NADP to form a NADPH-regenerating system. Simultaneously, the classic UGT reaction system consisted of 50 mM KPI, 5 mM MgCl2, 0.5 mg/mL microsomes, 0.125 mg/mL alamethicin, and 5.25 mg/mL saccharolactone. The reaction was initiated after supplying UDPGA. The CYP and UGT mixtures were incubated at 37 °C in a shaking water bath (80 rpm) for 1.5 h to enhance metabolite formation. To terminate the reaction, an ice-cold solution of Tes (50 ng/mL, dissolved in methanol and used as an internal standard) was added to half of the mixture volume. […]
as §2

Another series deals with Ugt1a1. Kind of series: DME activity ex vivo in MLMs and MKMs: UGT1A1 (SN38-G from SN38). Also on record: species or system mice; key to UGT1A1 Enzymatic activity: ↑: up-regulation; ↓: down-regulation; –: no change. On the procedure: as §3

In general, Km refers to the substrate concentration at which the rate is half of its maximum. With `CC1CCC2C(C=CC(C)C2C(=O)c2c(O)c(C3(O)CCC(O)C4OC43)cn(O)c2=O)C1` (centres unmarked) [N-hydap, N-Hydroxyapiosporamide], the “reduction of formation rate of 4-OH-DIC vs control” value with CYP2C9 was 70%. The Km in the series on MKMs came to 405 µM; with HLMs it was 116 µM. The “CYP3A4 Enzymatic activity” value with CYP3A4 [1] (Kidney) and in the series on CYP3A4 [1] (Liver) was “↑” in each case. For the same compound, the “elevation of formation rate of 6-OH-Tes” value in the series on CYP3A4 [1] (MLMs and MKMs, range stated jointly for APAP, SN38-G, 6-OH-Tes and CDCA-G) was 12%-331%. Also, in the series on CYP3A4 [1] (Table 4 experimental column), the “CYP3A4 inhibitor, experimental results” value was “No”. Moreover, the “protein levels of CYP3A4” value in the series on CYP3A4 [2] is “no significant changes”. The “UGT1A1 Enzymatic activity” value is given as “–” in the series on Ugt1a1 (Kidney) and “↑” with Ugt1a1 (Liver). Besides, the “elevation of formation rate of SN38-G” value with Ugt1a1 (MLMs, range stated jointly for APAP, SN38-G, 6-OH-Tes and CDCA-G) was 12%-331%.
